The record followed here is patent publication US20260130921A1, “TREATMENT OF VIRAL INFECTIONS WITH COMBINATION OF PIKFYVE KINASE INHIBITORS AND TMPRSS-2 INHIBITORS” (AcuraStem Incorporated, priority 2020, published 2026).

The assay addresses PIKFYVE (Homo sapiens, UniProt Q9Y2I7). The assay can be described thus: PIKFYVE assay (luciferase ADP-Glo kinase assay, Promega). The following applies: Table 2. Format: biochemical. How it is done:
The activity of Compounds 1-20 was measured using a PIKFYVE assay (luciferase ADP-Glo kinase assay available from Promega Corp. of Madison, WI).
The activity of Compounds 39-90 was also measured using a PIKFYVE assay (luciferase ADP-Glo kinase assay available from Promega Corp. of Madison, WI).
On the technique in general: ADP-Glo first removes unused ATP, then detects ADP through luciferase.

PIKFYVE, sequence (Q9Y2I7 whole entry): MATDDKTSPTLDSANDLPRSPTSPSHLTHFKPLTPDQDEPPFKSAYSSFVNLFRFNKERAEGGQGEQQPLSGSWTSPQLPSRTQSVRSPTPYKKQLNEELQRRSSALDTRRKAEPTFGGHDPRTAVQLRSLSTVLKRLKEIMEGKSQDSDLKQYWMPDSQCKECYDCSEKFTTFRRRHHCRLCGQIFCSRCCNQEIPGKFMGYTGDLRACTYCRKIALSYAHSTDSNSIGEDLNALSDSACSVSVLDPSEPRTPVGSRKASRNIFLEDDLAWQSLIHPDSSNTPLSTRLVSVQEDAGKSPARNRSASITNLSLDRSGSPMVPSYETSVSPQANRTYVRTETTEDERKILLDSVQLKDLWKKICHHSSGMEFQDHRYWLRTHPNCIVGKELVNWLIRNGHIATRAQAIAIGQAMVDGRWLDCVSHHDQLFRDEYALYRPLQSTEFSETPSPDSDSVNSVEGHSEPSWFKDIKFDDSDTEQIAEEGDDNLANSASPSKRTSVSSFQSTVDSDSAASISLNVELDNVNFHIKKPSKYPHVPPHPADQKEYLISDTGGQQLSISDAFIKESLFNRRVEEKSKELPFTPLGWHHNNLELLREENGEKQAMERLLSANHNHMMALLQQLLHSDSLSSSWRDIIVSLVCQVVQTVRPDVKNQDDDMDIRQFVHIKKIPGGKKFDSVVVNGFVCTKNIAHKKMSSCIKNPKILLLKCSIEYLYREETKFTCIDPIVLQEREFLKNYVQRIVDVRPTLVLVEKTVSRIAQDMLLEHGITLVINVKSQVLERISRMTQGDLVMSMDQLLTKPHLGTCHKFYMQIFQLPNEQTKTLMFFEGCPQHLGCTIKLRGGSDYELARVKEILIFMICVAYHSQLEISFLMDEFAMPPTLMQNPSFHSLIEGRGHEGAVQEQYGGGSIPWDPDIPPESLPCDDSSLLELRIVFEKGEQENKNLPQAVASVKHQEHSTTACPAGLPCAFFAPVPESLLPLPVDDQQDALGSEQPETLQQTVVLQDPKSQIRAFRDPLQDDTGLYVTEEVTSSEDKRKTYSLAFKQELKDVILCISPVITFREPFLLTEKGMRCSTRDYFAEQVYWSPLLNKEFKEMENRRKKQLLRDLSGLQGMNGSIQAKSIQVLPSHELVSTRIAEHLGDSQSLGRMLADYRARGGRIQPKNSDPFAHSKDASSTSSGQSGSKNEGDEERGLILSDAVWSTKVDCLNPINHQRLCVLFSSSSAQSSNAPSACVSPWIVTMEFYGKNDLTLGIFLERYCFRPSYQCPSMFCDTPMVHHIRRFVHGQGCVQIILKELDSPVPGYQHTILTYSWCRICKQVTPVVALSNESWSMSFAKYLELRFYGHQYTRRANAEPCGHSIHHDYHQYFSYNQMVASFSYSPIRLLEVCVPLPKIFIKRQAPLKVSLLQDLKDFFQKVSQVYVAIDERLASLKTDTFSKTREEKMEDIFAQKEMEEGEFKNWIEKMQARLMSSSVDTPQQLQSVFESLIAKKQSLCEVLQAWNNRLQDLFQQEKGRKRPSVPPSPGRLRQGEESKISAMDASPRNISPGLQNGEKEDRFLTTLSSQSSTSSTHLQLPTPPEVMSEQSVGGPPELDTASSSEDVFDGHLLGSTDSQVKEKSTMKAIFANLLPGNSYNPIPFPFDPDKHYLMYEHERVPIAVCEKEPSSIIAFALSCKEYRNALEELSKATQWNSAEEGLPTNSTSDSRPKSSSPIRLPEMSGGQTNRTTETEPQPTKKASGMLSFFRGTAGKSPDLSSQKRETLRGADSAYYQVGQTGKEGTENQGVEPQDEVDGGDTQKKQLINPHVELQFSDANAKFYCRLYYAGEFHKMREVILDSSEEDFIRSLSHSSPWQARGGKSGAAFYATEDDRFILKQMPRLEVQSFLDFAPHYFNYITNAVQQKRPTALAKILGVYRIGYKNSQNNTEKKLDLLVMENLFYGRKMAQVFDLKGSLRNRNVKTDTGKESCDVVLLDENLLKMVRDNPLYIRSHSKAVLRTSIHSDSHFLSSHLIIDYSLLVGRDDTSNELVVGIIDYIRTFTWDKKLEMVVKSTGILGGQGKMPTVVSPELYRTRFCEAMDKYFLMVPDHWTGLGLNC

Usually IC50 stands for the point on the concentration scale where inhibition reaches its midpoint. Low readings indicate inhibition by little substance, high ones a need for much substance. In the case of `Clc1ccc(-c2ccn(-c3cc(N4CCOCC4)nc(OCCc4ccccn4)n3)n2)cc1` [Compound 40], the IC50 is below 500 nM.
`CC(C)(C)c1ccn(-c2cc(N3CCOCC3)nc(OCC(O)CO)n2)n1` (stereo not shown) [Compound 51] had an IC50 below 10000 nM.
The compound `c1ccc(-c2cn(-c3cc(N4CCOCC4)nc(OCCc4ccccn4)n3)cn2)cc1` [Compound 39] came in with an IC50 below 10000 nM.
`Cc1cccc(-c2ccn(-c3cc(N4CCOCC4)nc(N4CCCC4=O)n3)n2)c1` [Compound 61]: the IC50 was below 50 nM.
The compound `COc1nc(N2CCOCC2)cc(-n2ccc(-c3cccc(C)c3)n2)n1` [Compound 59] had an IC50 below 50 nM.
`COCc1cc(-c2ccccc2)n(-c2cc(N3CCOCC3)nc(OCCc3cnn(C)c3)n2)n1` [Compound 77] came in with a 50% inhibitory concentration (IC50) below 50 nM.
Regarding `c1cc(-c2cc(N3CCOCC3)nc(OCC3CCCO3)n2)n[nH]1` (stereo not shown) [Compound 45], the IC50 was below 500 nM.
Regarding `COCc1nc(N2CCOCC2)cc(-n2ccc(-c3ccccc3)n2)n1` [Compound 69], the IC50 is below 50 nM.
`Cc1cccc(-c2ccn(-c3cc(N4CCOCC4)nc(C(F)(F)F)n3)n2)c1` [Compound 82] gave an IC50 below 50 nM.
The figure for `COCC(O)c1nc(N2CCOCC2)cc(-n2ccc(-c3cccc(C)c3)n2)n1` (stereo not shown) [Compound 49] is below 50 nM.
The same measure for `Cc1cccc(-c2ccn(-c3cc(N4CCOCC4)ncn3)n2)c1` [Compound 60]: below 500 nM.
`Cc1cccc(-c2ccn(-c3cc(N4CCOCC4)nc(Cc4ccccc4)n3)n2)c1` [Compound 42]: the IC50 was below 500 nM.
In turn, `Fc1ccc(-c2cnn(-c3cc(N4CC[C@H]5OCC[C@H]54)nc(CCCc4ccccn4)n3)c2)cc1` [Compound 41] yielded a 50% inhibitory concentration (IC50) below 10000 nM.
As to `COC(c1ccccc1)c1nc(N2CCOCC2)cc(-n2ccc(-c3ccccc3)n2)n1` (stereo not shown) [Compound 78], the IC50 is below 50 nM.
The same measure for `Cc1cccc(-c2ccn(-c3nc(NCCc4ccccn4)cc(N4CCOCC4)n3)n2)c1` [Compound 46]: below 50 nM; for `CCOC(=O)c1ccn(-c2cc(N3CCOCC3)nc(OCCc3ccn(C)n3)n2)n1` [Compound 70]: below 50 nM.
`OCC(O)COc1nc(N2CCOCC2)cc(-n2ncc3ccccc32)n1` (stereo not shown) [Compound 53] came in with an IC50 below 500 nM.
The compound `OCC(O)COc1nc(N2CCOCC2)cc(-n2cc3ccccc3n2)n1` (stereo not shown) [Compound 52] came in with an IC50 below 500 nM.
Turning to `Cc1cccc(-c2ccn(-c3cc(N4CC[C@H]5OCC[C@H]54)nc(C(O)CO)n3)n2)c1` (stereo partly shown) [Compound 48], the IC50 was below 500 nM.
On to `Cc1cccc(-c2ccn(-c3nc(NCCc4cnccn4)cc(N4CCOCC4)n3)n2)c1` [Compound 47], for which the IC50 is below 50 nM.
`Cc1cccc(-c2ccn(-c3cc(N4CCOCC4)nc(OC[C@H](O)c4ccccc4)n3)n2)c1` [Compound 58] gave an IC50 below 5 nM.
With `CNc1nc(N2CCOCC2)cc(-n2nc(-c3ccccc3)cc2C)n1` [Compound 85], the IC50 was below 500 nM.
Turning to `Cc1cccc(-c2ccn(-c3cc(N4CCOCC4)nc(OC[C@@H](O)c4ccccc4)n3)n2)c1` [Compound 57], the IC50 is below 5 nM.
The figure for `CN(C)Cc1cc(-c2ccccc2)nn1-c1cc(N2CCOCC2)nc(OCCc2cnn(C)c2)n1` [Compound 75] is below 50 nM; for `Cc1cn(-c2cc(N3CCOCC3)nc(OCCc3cnn(C)c3)n2)nc1-c1ccccc1` [Compound 63] it is below 500 nM; for `COc1cc(N2CCOCC2)nc(-n2ccc(-c3cccc(C)c3)n2)n1` [Compound 87] it is below 500 nM.
Turning to `COc1nc(N2CCOCC2)c(C)c(-n2ccc(-c3cccc(C)c3)n2)n1` [Compound 83], the IC50 is below 500 nM.
The same measure for `OCc1nc(N2CCOCC2)cc(-n2ccc(-c3ccccc3)n2)n1` [Compound 84]: below 50 nM.
